33 compounds from ChEMBL document CHEMBL5614431, “Discovery of 1,3,4-oxadiazoles with slow-action activity against Plasmodium falciparum malaria parasites” (Eur J Med Chem, 2024) can be followed below.

Data set [1] is described as follows: Selectivity ratio of IC50 for antimalarial activity against synchronous ring stage Plasmodium falciparum 3D7 infected in human Erythrocyte assessed as inhibition of parasite growth incubated for 48 hrs by [3H]-hypoxanthine incorporation assay to IC50 for antimalarial activity against synchronous ring stage Plasmodium falciparum 3D7 infected in human Erythrocyte assessed as inhibition of parasite growth incubated for 48 hrs by [3H]-hypoxanthine incorporation assay. Format: functional.

The test system of data set [2] is Plasmodium falciparum. Briefly: Antimalarial activity against synchronous ring stage Plasmodium falciparum 3D7 infected in human Erythrocyte assessed as inhibition of parasite growth incubated for 96 hrs by [3H]-hypoxanthine incorporation assay. Format: functional, organism-based. The settings on record: 3D7, Erythrocyte.
Data set [3] can be described thus: Selectivity index, ratio of IC50 for cytotoxicity against human NFF cells to IC50 for antimalarial activity against synchronous ring stage Plasmodium falciparum 3D7 infected in human Erythrocyte assessed as inhibition of parasite growth incubated for 96 hrs. Format: toxicity, cell-based. Particulars: read-out: Ratio IC50.
Data set [4] relates to Plasmodium falciparum. In words: Antimalarial activity against synchronous ring stage Plasmodium falciparum 3D7 infected in human Erythrocyte assessed as inhibition of parasite growth incubated for 48 hrs by [3H]-hypoxanthine incorporation assay. Type of data set: functional, organism-based. The settings on record: 3D7, Erythrocyte.
Data set [5] in a line: Cytotoxicity against human NFF cells assessed as reduction in cell viability incubated for 72 hrs by SRB assay. Type of data set: toxicity, cell-based. A general note: The SRB assay estimates cell density from bound dye.

SMILES strings stand for the structures.

On to `CC1CN(c2nnc(S(=O)(=O)C3CCCCC3)o2)CCO1` (racemic), for which the “Ratio IC50” value in data set [1] is given as greater than 66. Moreover, the IC50 with Plasmodium falciparum [2] is 0.38 µM; in the data set with Plasmodium falciparum [4], greater than 25 µM. For the same compound, the selectivity ratio at 96 h in data set [3] is greater than 263. Besides, in data set [5], the IC50 at 72 h was greater than 100 µM.
For `CC1CCN(c2nnc(S(=O)(=O)C3CCCCC3)o2)CC1`, in that order: 182, 0.22 µM, 39.3 µM, greater than 227 and greater than 50 µM.
The corresponding values for `O=S(=O)(c1nnc(N2C3CCCC2CC3)o1)C1CCCCC1` are greater than 61, 0.41 µM, greater than 25 µM, greater than 246 and greater than 100 µM.
Consider `O=S(=O)(Cc1ccc(Cl)c(Cl)c1)c1nnc(N2CCOCC2)o1`, for which, in data set [1], the “Ratio IC50” value was 1.6. In addition, the half-maximal inhibitory concentration (IC50) in the data set on Plasmodium falciparum [2] was determined as 4.2 µM; in the data set on Plasmodium falciparum [4] it was 6.6 µM.
For `O=S(=O)(c1nnc(N2CCOc3ccccc32)o1)C1CCCCC1`, the “Ratio IC50” value in data set [1] is 2.3. In addition, the values for the IC50 with Plasmodium falciparum [2] and with Plasmodium falciparum [4] were 2.06 µM and 4.65 µM, respectively. Besides, the selectivity ratio at 96 h in data set [3] amounted to 10. Besides, in data set [5], the IC50 at 72 h turned out to be 21.4 µM.
In the case of `O=S(=O)(c1nnc(N2CC3CCC(C2)O3)o1)C1CCCCC1`, in data set [1], the “Ratio IC50” value is reported as greater than 500. The IC50 with Plasmodium falciparum [2] was 0.1 µM; in the data set with Plasmodium falciparum [4] it was greater than 50 µM. For the same compound, the selectivity ratio at 96 h in data set [3] was greater than 1000. Moreover, in data set [5], the IC50 at 72 h was greater than 100 µM.
The corresponding values for `CCOC(=O)C1CCCN(c2nnc(S(=O)(=O)C3CCCCC3)o2)C1` (racemic) are greater than 27, 0.93 µM, greater than 25 µM, greater than 111 and greater than 100 µM.
Take `O=S(=O)(CC1(C(F)(F)F)CC1)c1nnc(N2CCOCC2)o1`: the “Ratio IC50” value in data set [1] was greater than 4. Also, the IC50 with Plasmodium falciparum [2] is 3.19 µM; with Plasmodium falciparum [4], greater than 12.5 µM.
In the case of `N#CC1CCN(c2nnc(S(=O)(=O)C3CCCCC3)o2)CC1`, the “Ratio IC50” value in data set [1] is reported as greater than 21. The figures for the IC50 in the data set with Plasmodium falciparum [2] and in the data set on Plasmodium falciparum [4] were 0.49 µM and greater than 10 µM, respectively. In data set [3], the selectivity ratio at 96 h is greater than 200. Also, in data set [5], the IC50 at 72 h was greater than 100 µM.
For `CC1CCCN(c2nnc(S(=O)(=O)C3CCCCC3)o2)C1` (racemic), in that order: greater than 125, 0.1 µM, greater than 12.5 µM, greater than 1000 and greater than 100 µM.
The corresponding values for `O=S(=O)(c1nnc(N2CCOCC2)o1)C1CCOCC1` are greater than 7, 7.09 µM, greater than 50 µM, greater than 14 and greater than 100 µM.
For `CC1(C)CN(c2nnc(S(=O)(=O)C3CCCCC3)o2)CCO1`, in that order: greater than 105, 0.24 µM, greater than 25 µM, greater than 417 and greater than 100 µM.
Regarding `O=S(=O)(c1nnc(N2CCNCC2)o1)C1CCCCC1`, the “Ratio IC50” value in data set [1] was 16. The figures for the IC50 in the data set on Plasmodium falciparum [2] and in the data set with Plasmodium falciparum [4] were 3.58 µM and 57.9 µM, respectively.
On to `O=S(=O)(CC12CC3CC(CC(C3)C1)C2)c1nnc(N2CCCCC2)o1`, for which, in data set [1], the “Ratio IC50” value stood at 35. Moreover, the IC50 stood at 0.4 µM with Plasmodium falciparum [2] and 13.7 µM with Plasmodium falciparum [4]. For the same compound, the selectivity ratio at 96 h in data set [3] came out at 76. For the same compound, the IC50 at 72 h in data set [5] was 30.5 µM.
The corresponding values for `O=S(=O)(c1nnc(N2CCC(F)(F)CC2)o1)C1CCCCC1` are greater than 17, 0.72 µM, greater than 12.5 µM, greater than 127 and greater than 100 µM.
As for `C[C@@H]1CN(c2nnc(S(=O)(=O)C3CCCCC3)o2)C[C@H](C)O1`, the “Ratio IC50” value in data set [1] is greater than 85. Besides, the IC50 in the data set on Plasmodium falciparum [2] is 0.29 µM; in the data set with Plasmodium falciparum [4], greater than 25 µM. For the same compound, in data set [3], the selectivity ratio at 96 h is greater than 345. Moreover, the IC50 at 72 h in data set [5] was greater than 100 µM.
The corresponding values for `COC1CCN(c2nnc(S(=O)(=O)C3CCCCC3)o2)CC1` are greater than 72, 0.69 µM, greater than 50 µM, greater than 145 and greater than 100 µM.
The corresponding values for `CC(C)(C)OC(=O)[C@@H]1CCCN1c1nnc(S(=O)(=O)C2CCCCC2)o1` are greater than 9, 2.65 µM, greater than 25 µM, greater than 38 and greater than 100 µM.
The corresponding values for `CC(=O)N1CCN(c2nnc(S(=O)(=O)C3CCCCC3)o2)CC1` are greater than 34, 1.46 µM, greater than 50 µM, greater than 69 and greater than 100 µM.
Turning to `Cl.O=S(=O)(c1nnc(N2CCOCC2)o1)C1CCNCC1`, in data set [1], the “Ratio IC50” value is 1. Besides, the IC50 with Plasmodium falciparum [2] and in the data set on Plasmodium falciparum [4] was greater than 50 µM in each case.
Consider `CC1(C)CCN(c2nnc(S(=O)(=O)C3CCCCC3)o2)CC1`, for which the “Ratio IC50” value in data set [1] is greater than 171. The IC50 was 0.15 µM in the data set with Plasmodium falciparum [2] and greater than 25 µM with Plasmodium falciparum [4]. In data set [3], the selectivity ratio at 96 h was greater than 1080. Moreover, the IC50 at 72 h in data set [5] was greater than 100 µM.
For `O=S(=O)(CC1(C(F)(F)F)CCC1)c1nnc(N2CCOCC2)o1`, the “Ratio IC50” value in data set [1] turned out to be 4. Besides, the IC50 with Plasmodium falciparum [2] was found to be 4.3 µM; in the data set on Plasmodium falciparum [4], 17 µM.
For `CC(C)(C)OC(=O)N1CCN(c2nnc(S(=O)(=O)C3CCCCC3)o2)CC1`, in that order: greater than 18, 2.73 µM and greater than 50 µM.
The corresponding values for `O=S(=O)(c1nnc(N2CCOCC2)o1)C1CCCC1` are greater than 9, 5.82 µM and greater than 50 µM.
For `Cc1ccc(C)c(C[S+]([O-])c2nnc(N3CCOCC3)o2)c1` (stereo unspecified), in that order: 1, 13.7 µM and 16.8 µM.
For the compound `Cc1ccc(C)c(CSc2nnc(N3CCOCC3)o2)c1`, the IC50 in the data set on Plasmodium falciparum [2] and in the data set on Plasmodium falciparum [4] was greater than 50 µM each time.
As to `O=S(=O)(c1nnc(N2CCCCO2)o1)C1CCCCC1`, the “Ratio IC50” value in data set [1] is 0.4. Moreover, the results for the IC50 in the data set on Plasmodium falciparum [2] and in the data set with Plasmodium falciparum [4] were 18.4 µM and 8.24 µM, respectively.
For `O=S(=O)(c1nnc(N2CCC(c3ccccc3)CC2)o1)C1CCCCC1`, in that order: greater than 7, 13.5 µM and greater than 100 µM.
For `O=S1(=O)CCN(c2nnc(S(=O)(=O)C3CCCCC3)o2)CC1`, in that order: greater than 4, 6.75 µM and greater than 25 µM.
In the case of `O=S(=O)(c1nnc(N2CCOCC2)s1)C1CCCCC1`, the IC50 with Plasmodium falciparum [2] and with Plasmodium falciparum [4] was greater than 50 µM in each case.
With `O=S(=O)(c1ccc(Cl)c(Cl)c1)c1nnc(N2CCOCC2)o1`, in data set [1], the “Ratio IC50” value is 0.5. Besides, the values for the IC50 in the data set with Plasmodium falciparum [2] and in the data set on Plasmodium falciparum [4] were 24.6 µM and 13.1 µM, respectively.
Regarding `O=S(=O)(c1nnc(N2CCN(CC(F)(F)F)CC2)o1)C1CCCCC1`, the “Ratio IC50” value in data set [1] was greater than 11. The IC50 is 2.35 µM in the data set on Plasmodium falciparum [2] and greater than 25 µM in the data set on Plasmodium falciparum [4].
For `CN1CCN(c2nnc(S(=O)(=O)C3CCCCC3)o2)CC1`, in that order: greater than 19, 5.4 µM and greater than 100 µM.

In general, IC50 refers to the concentration needed to halve the response being measured.
